Assay results as given in patent US7662789B2, “Peptide substance restoring myocardium function” (“Access Bioscience” CJSC, priority 2004, dated 2010).
Where a SMILES comes first, the peptide text is derived from it.

How the values were obtained:
succinate dehydrogenase = conditions: myocardium slices from different animals
male guinea pigs = experiment: Chronic toxicity, 6 months intramuscular in guinea pigs
Protocol: Common toxicity of Ala-Glu-Asp-Arg (SEQ ID NO:1) tetrapeptide was studied in compliance with the requirements stated in “Manual for experimental (pre-clinical) study of new pharmaceutical substances” (2000): acute toxicity in case of single administration of the substance, as well as sub-acute and chronic toxicity in case of long-term administration of the tetrapeptide.
The studies of chronic toxicity were conducted for 6 months, basing on the duration of the recommended clinical administration of the preparation, on 96 male guinea pigs with body weight of 300-340 g. The experimental animals received the tetrapeptide daily, once a day, intramuscularly, for 6 months in the doses of 1 μg/kg, 0.1 mg/kg and 1 mg/kg in 0.5 ml of 0.9% NaCl solution. The control animals received 0.9% NaCl solution in the same volume and by the same schedule. Common methods were used for the identification of the quantity of erythrocytes, hemoglobin, reticulocytes, thrombocytes, leukocytes, as well as of the leukocyte formula, erythrocyte sedimentation rate (ESR) and erythrocyte resistance in the peripheric blood of the animals. Alongside with this general protein content in the blood serum was estimated by Lowry's method, as well as of potassium and sodium using the method of plasma spectrophotometry. After the completion of the experiment the pathomorphological study of the brain and spinal cord, spinal cord ganglia, thyroid gland, parathyroid glands, adrenal glands, testis, pituitary gland, heart, lungs, aorta, liver, kidney, urinary bladder, pancreas, stomach, small intestine, large intestine, thymus, spleen, lymph nodes and bone marrow was conducted.

C[C@H](N)C(=O)N[C@@H](CCC(=O)O)C(=O)N[C@@H](CC(=O)O)C(=O)N[C@@H](CCCNC(=N)N)C(=O)O [Tetrapeptide, L-alanyl-L-glutamyl-L-aspartyl-L-arginine] (H-AEDR-OH)
Activity of succinate dehydrogenase (succinate dehydrogenase): inhibiting effect | Basophils (male guinea pigs; 1 μg/kg, 3 months): 0.69 ± 0.05% | ESR (male guinea pigs; 1 μg/kg, 3 months): 1.87 ± 0.07 mm/hour | Eosinophils (male guinea pigs; 1 μg/kg, 3 months): 0.64 ± 0.04% | Erythrocyte resistance, minimum (male guinea pigs; 1 μg/kg, 3 months): 0.33 ± 0.02 % NaCl | Erythrocytes (male guinea pigs; 1 μg/kg, 3 months): 5.4 ± 0.2 ×10^12/l | General protein in the blood serum (male guinea pigs; 1 μg/kg, 3 months): 72.6 ± 3.3 g/L | Hemoglobin (male guinea pigs; 1 μg/kg, 3 months): 13.8 ± 1.2 | Leukocytes (male guinea pigs; 1 μg/kg, 3 months): 11.2 ± 0.8 ×10^9/l | Lymphocytes (male guinea pigs; 1 μg/kg, 3 months): 50.7 ± 2.4% | Monocytes (male guinea pigs; 1 μg/kg, 3 months): 2.4 ± 0.03% | Potassium in the blood serum (male guinea pigs; 1 μg/kg, 3 months): 5.3 ± 1.8 mmol/L | Reticulocytes (male guinea pigs; 1 μg/kg, 3 months): 1.2 ± 0.07% | Segmented neutrophils (male guinea pigs; 1 μg/kg, 3 months): 44.9 ± 2.5% | Sodium in the blood serum (male guinea pigs; 1 μg/kg, 3 months): 154.8 ± 6.8 mmol/L | Stab neutrophils (male guinea pigs; 1 μg/kg, 3 months): 0.27 ± 0.07% | Thrombocytes (male guinea pigs; 1 μg/kg, 3 months): 143.6 ± 8.4 ×10^9/l | Basophils (male guinea pigs; 1 μg/kg, 6 months): 0.71 ± 0.05% | ESR (male guinea pigs; 1 μg/kg, 6 months): 2.05 ± 0.04 mm/hour | Eosinophils (male guinea pigs; 1 μg/kg, 6 months): 0.75 ± 0.08% | Erythrocyte resistance, maximum (male guinea pigs; 1 μg/kg, 6 months): 0.44 ± 0.04 % NaCl | Erythrocyte resistance, minimum (male guinea pigs; 1 μg/kg, 6 months): 0.35 ± 0.05 % NaCl | Erythrocytes (male guinea pigs; 1 μg/kg, 6 months): 5.2 ± 0.4 ×10^12/l | General protein in the blood serum (male guinea pigs; 1 μg/kg, 6 months): 73.1 ± 3.6 g/L | Hemoglobin (male guinea pigs; 1 μg/kg, 6 months): 14.2 ± 0.6 | Leukocytes (male guinea pigs; 1 μg/kg, 6 months): 11.9 ± 0.5 ×10^9/l | Lymphocytes (male guinea pigs; 1 μg/kg, 6 months): 52.7 ± 2.2% | Monocytes (male guinea pigs; 1 μg/kg, 6 months): 2.5 ± 0.05% | Potassium in the blood serum (male guinea pigs; 1 μg/kg, 6 months): 5.4 ± 2.2 mmol/L | Reticulocytes (male guinea pigs; 1 μg/kg, 6 months): 1.3 ± 0.08% | Segmented neutrophils (male guinea pigs; 1 μg/kg, 6 months): 43.4 ± 3.2% | Sodium in the blood serum (male guinea pigs; 1 μg/kg, 6 months): 154.6 ± 6.9 mmol/L | Stab neutrophils (male guinea pigs; 1 μg/kg, 6 months): 0.36 ± 0.05% | Thrombocytes (male guinea pigs; 1 μg/kg, 6 months): 144.9 ± 9.8 ×10^9/l | Chronic toxicity, side effects (male guinea pigs; 6 months i.m. daily, 1 μg/kg, 0.1 mg/kg, 1 mg/kg, 100-1000 times the therapeutic doses): absence of side effects | General status, blood indices, internal organs, cardiovascular, respiratory, liver and kidney functions (male guinea pigs; long-term administration): no pathologic changes
